Results taken from US4230712A, “7-Methyl-8β-lower alkyl or 7-methyl-8-lower alkyl B/C cis or trans morphinan-6-one compounds and therapeutic method of treating pain employing them” (Miles Laboratories, Inc., priority 1978, dated 1980).
Counter-ions that a name gives are not always drawn.

Tests used:
mice = experiment: acetic acid mouse writhing test (analgesic effect, s.c.); assay type: in vivo, male CD-1 mice; settings: sc; mouse acetic acid writhing, s.c., dose reducing the number of writhes by 50%; IA @ dose = inactive at that dose; read-out: ED50
Method: (A) Analgesic effects upon mice (acetic acid writhing test).
TEST A. ACETIC ACID MOUSE WRITHING TEST
The analgesic effects of test compounds were determined in mice by use of the acetic acid writhing test described by B. J. R. Whittle, Brit. J. Pharmacol., 22:246 (1964). In this test at least three groups of five male CD-1 mice (18-22 g) each were given subcutaneous doses of the test drug dissolved in either distilled water or distilled water acidified with HCl depending on the solubility of the compound. In all cases, 0.4 milliliter of a 0.5% V/V acetic acid in distilled water solution was administered intraperitoneally 15 minutes post drug. The number of writhes in a 20 min. interval beginning 5 minutes after the acetic acid injection were determined and compared with the number of writhes in control groups which had received only acetic acid.
Percent inhibition of writhing was calculated as: [formula]
The ED50 dose, i.e., the dose required to reduce the number of writhes by 50%, was determined graphically from a plot of % inhibition as a probit versus log dose. Confidence limits of 95% were calculated on the basis of those results falling in the range 16-84% inhibition. See Litchfield, J. T. and Wilcoxon, F., J. Pharmacol. Exp. Ther., 96, 99-113, (1949).

[1] = charcoal meal test with attempted naloxone reversal; assay type: in vivo
rats = experiment: narcotic antagonist activity, modified rat tail flick test against morphine; assay type: in vivo, male albino Wistar rats; parameters: AD50: unit not given here; settings: for AD50: rat tail flick, dose inhibiting the morphine (ED80 dose s.c.) effect by 50%, IA @ dose = inactive at that dose
Method: (B) Narcotic antagonist activity in rats (modified rat tail flick test).
TEST B. EVALUATION OF NARCOTIC ANTAGONIST ACTIVITY
The narcotic antagonist effects of test compounds were determined by a modification of the rat tail flick procedure of Harris and Pierson (J. Pharmacol. Exp. Ther. 143:141 [1964]).
Male albino Wistar rats (100-120 g) were used for this study. A rat's tail is so placed so as to cover a photocell. Heat is applied by a lamp in a reflector with a timer being connected to the lamp and photocell so that the timer goes on when the light is turned on and is turned off when the photocell is uncovered. A rheostat, incorporated into a heating lamp is used to adjust the intensity of the light falling on the tail of the rat such that the rat's control reaction time is from two to four seconds. Animals with a control reaction time outside this range are rejected. The rheostat adjustment is made only if a significant proportion (more than 2 out of every 10 rats) of the reaction times are outside the range of two to four seconds. Groups of five rats were used each time, and two control times were determined at 60 and 30 minutes prior to subcutaneous injection of the drug.
Thirty minutes after the last control run the test drug was given intraperitoneally. This was followed ten minutes later by an ED80 dose of morphine subcutaneously. The animals were retested at 20 minutes after the morphine injection. Control animals were given vehicle and morphine only. The data were calculated as follows: [formula]
The data were plotted on log-probit paper and AD50 values, i.e., the dose required to inhibit the morphine effect by 50% within 95% confidence limits, were determined by the method of Litchfield and Wilcoxon.

**Q.** For `C[C@H]1C[C@H]2[C@H]3Cc4ccc(O)cc4[C@@]2(CCN3CC2CC2)CC1=O.Cl` [TR-5177, 17-Cyclopropylmethyl-3-hydroxy-7α-methylmorphinan-6-one Hydrochloride], which ED50 (mice) is on record?
**A.** 0.87 mg/kg

**Q.** What about the “action in charcoal meal test upon attempted naloxone reversal” value ([1]; attempted reversal with naloxone, Hydrochloride) of the same compound?
**A.** novel action in charcoal meal test upon attempted naloxone reversal

**Q.** And the “duration of action suggested by charcoal meal test” value ([1]; inferred from novel action upon attempted naloxone reversal)?
**A.** may have a longer duration of action than would be expected

**Q.** And the AD50 (rats)?
**A.** 5.2

**Q.** Which results are given for `C[C@H]1CC(=O)C[C@]23CCN(CC4CCC4)[C@H](Cc4ccc(O)cc42)[C@H]13.Cl` [TR-5130, 17-Cyclobutylmethyl-3-hydroxy-8β-methylmorphinan-6-one Hydrochloride]?
**A.** ED50 (mice): 0.11 mg/kg; analgesic (agonist)/narcotic antagonist activity profile (rats; in words, conclusion from Tests A and B): mixed agonist/antagonist activity; AD50 (rats): 1.05

**Q.** With `COc1ccc2c(c1)[C@]13CCN(CC4CCC4)[C@H](C2)[C@H]1[C@H](C)[C@@H](C)C(=O)C3` [TR-5332, 17-Cyclobutylmethyl-7β,8α-dimethyl-3-methoxy-isomorphinan-6-one Hydrochloride] as the compound, how does the ED50 (mice) read?
**A.** > 10 mg/kg

**Q.** What about the AD50 (rats) of the same compound?
**A.** > 10
